In the NIST ThermoML archive (doi:10.1021/je3013342):

Legend:
[1] = xn = mol fraction of the nth substance listed; conditions: 101 kPa, Liquid, Vibrating tube method
[2] = 101 kPa, Liquid, Vibrating tube method

C[N+](=O)[O-] [nitromethane] + ClCCCCl
[1], x2 = 0
Conditions | mass density [kg/m3]
298.15 K | 1130.9
308.15 K | 1117.28
318.15 K | 1103.53

ClC(Cl)Cl [trichloromethane] + C[N+](=O)[O-]
[1], x1 = 1
Conditions | mass density [kg/m3]
298.15 K | 1473.42
308.15 K | 1454.33
318.15 K | 1434.98

ClC(Cl)C(Cl)Cl [1,1,2,2-tetrachloroethane] + C[N+](=O)[O-]
mass density [kg/m3], [1]
Conditions | x1 = 0.0711 | x1 = 0.1888 | x1 = 0.2563 | x1 = 0.3464 | x1 = 0.4341 | x1 = 0.5431 | x1 = 0.6654 | x1 = 0.8211 | x1 = 0.9285 | x1 = 1
298.15 K | 1191.08 | 1275.68 | 1318 | 1366.65 | 1408.57 | 1454.03 | 1497.84 | 1544.6 | 1571.92 | 1588.23
308.15 K | 1177.12 | 1261.26 | 1303.41 | 1351.85 | 1393.61 | 1438.91 | 1482.56 | 1529.17 | 1556.4 | 1572.66
318.15 K | 1163.03 | 1246.76 | 1288.69 | 1336.94 | 1378.54 | 1423.68 | 1467.2 | 1513.67 | 1540.82 | 1557.04

C[N+](=O)[O-] [nitromethane] + CC(Cl)(Cl)Cl
[1], x2 = 0
Conditions | mass density [kg/m3]
298.15 K | 1130.91
308.15 K | 1117.29
318.15 K | 1103.55

ClCCCCCl [1,4-dichlorobutane] + C[N+](=O)[O-]
mass density [kg/m3], [1]
Conditions | x1 = 0.0825 | x1 = 0.1759 | x1 = 0.2825 | x1 = 0.3815 | x1 = 0.4815 | x1 = 0.5911 | x1 = 0.6898 | x1 = 0.8208 | x1 = 0.9262 | x1 = 1
298.15 K | 1128.17 | 1126.77 | 1126.33 | 1126.62 | 1127.33 | 1128.46 | 1129.64 | 1131.38 | 1132.86 | 1133.94
308.15 K | 1114.98 | 1113.92 | 1113.86 | 1114.44 | 1115.42 | 1116.8 | 1118.18 | 1120.16 | 1121.81 | 1123
318.15 K | 1101.65 | 1100.97 | 1101.28 | 1102.17 | 1103.42 | 1105.05 | 1106.65 | 1108.88 | 1110.7 | 1112

CCCCCCl [1-chloropentane]
[2]
Conditions | mass density [kg/m3]
298.15 K | 877.09
308.15 K | 866.97
318.15 K | 856.73

ClC(Cl)C(Cl)Cl [1,1,2,2-tetrachloroethane]
[2]
Conditions | mass density [kg/m3]
298.15 K | 1588.23
308.15 K | 1572.66
318.15 K | 1557.04

C[N+](=O)[O-] [nitromethane] + ClC(Cl)C(Cl)Cl
[1], x2 = 0
Conditions | mass density [kg/m3]
298.15 K | 1130.86
308.15 K | 1117.24
318.15 K | 1103.5

ClCCCl [1,2-dichloroethane] + C[N+](=O)[O-]
[1], x1 = 1
Conditions | mass density [kg/m3]
298.15 K | 1245.59
308.15 K | 1230.96
318.15 K | 1216.16

ClCCCCCl [1,4-dichlorobutane]
[2]
Conditions | mass density [kg/m3]
298.15 K | 1133.94
308.15 K | 1123
318.15 K | 1112

C[N+](=O)[O-] [nitromethane] + ClCCCl
mass density [kg/m3], [1]
Conditions | x2 = 0 | x2 = 0.1132 | x2 = 0.2235 | x2 = 0.3249 | x2 = 0.4672 | x2 = 0.5586 | x2 = 0.6264 | x2 = 0.7349 | x2 = 0.857 | x2 = 0.923
298.15 K | 1130.86 | 1147.31 | 1162.54 | 1175.69 | 1192.94 | 1203.25 | 1210.49 | 1221.8 | 1233.37 | 1239.2
308.15 K | 1117.24 | 1133.59 | 1148.71 | 1161.77 | 1178.89 | 1189.11 | 1196.29 | 1207.48 | 1218.91 | 1224.67
318.15 K | 1103.5 | 1119.73 | 1134.75 | 1147.71 | 1164.69 | 1174.81 | 1181.96 | 1192.99 | 1204.28 | 1209.97

CCCCCCl [1-chloropentane] + C[N+](=O)[O-]
mass density [kg/m3], [1]
Conditions | x1 = 0.1043 | x1 = 0.1721 | x1 = 0.2575 | x1 = 0.3466 | x1 = 0.4525 | x1 = 0.5435 | x1 = 0.6864 | x1 = 0.8325 | x1 = 0.8859 | x1 = 1
298.15 K | 1075.06 | 1045.39 | 1014.58 | 987.6 | 960.73 | 941.21 | 916.34 | 895.75 | 889.18 | 877.09
308.15 K | 1062.09 | 1032.77 | 1002.33 | 975.7 | 949.19 | 929.96 | 905.49 | 885.27 | 878.82 | 866.97
318.15 K | 1048.99 | 1020.02 | 989.95 | 963.67 | 937.53 | 918.59 | 894.51 | 874.65 | 868.33 | 856.73

C[N+](=O)[O-] [nitromethane] + ClC(Cl)Cl
mass density [kg/m3], [1]
Conditions | x2 = 0 | x2 = 0.1197 | x2 = 0.1772 | x2 = 0.3007 | x2 = 0.4009 | x2 = 0.5 | x2 = 0.5978 | x2 = 0.7194 | x2 = 0.8607 | x2 = 0.9562
298.15 K | 1130.86 | 1189.05 | 1214.82 | 1265.96 | 1303.55 | 1337.74 | 1368.78 | 1404.19 | 1441.14 | 1463.58
308.15 K | 1117.24 | 1174.6 | 1200 | 1250.36 | 1287.37 | 1321 | 1351.55 | 1386.34 | 1422.65 | 1444.71
318.15 K | 1103.5 | 1160.01 | 1185.02 | 1234.59 | 1271 | 1304.11 | 1334.09 | 1368.25 | 1403.89 | 1425.56

C[N+](=O)[O-] [nitromethane] + CCCCCCl
[1], x2 = 0
Conditions | mass density [kg/m3]
298.15 K | 1130.86
308.15 K | 1117.23
318.15 K | 1103.48

C[N+](=O)[O-] [nitromethane]
[2]
Conditions | mass density
298.15 K | 1130.9 kg/m3 [middle of 5 runs]
308.15 K | 1117.28 kg/m3 [middle of 6 runs]
318.15 K | 1103.53 kg/m3 [middle of 6 runs]

C[N+](=O)[O-] [nitromethane] + CCCCCl
mass density [kg/m3], [1]
Conditions | x2 = 0 | x2 = 0.1107 | x2 = 0.2174 | x2 = 0.3236 | x2 = 0.3932 | x2 = 0.4856 | x2 = 0.5569 | x2 = 0.6626 | x2 = 0.7722 | x2 = 0.8646
298.15 K | 1130.76 | 1080.18 | 1040.11 | 1007.02 | 987.92 | 965.38 | 949.92 | 929.96 | 911.75 | 898.07
308.15 K | 1117.14 | 1067 | 1027.27 | 994.47 | 975.54 | 953.21 | 937.92 | 918.09 | 900.15 | 886.65
318.15 K | 1103.39 | 1053.7 | 1014.29 | 982.09 | 963.01 | 940.87 | 925.76 | 906.2 | 888.4 | 875.07

CC(Cl)(Cl)Cl [1,1,1-trichloroethane] + C[N+](=O)[O-]
mass density [kg/m3], [1]
Conditions | x1 = 0.0921 | x1 = 0.1727 | x1 = 0.2614 | x1 = 0.3951 | x1 = 0.4862 | x1 = 0.5904 | x1 = 0.7066 | x1 = 0.8358 | x1 = 0.9012 | x1 = 1
298.15 K | 1161.87 | 1185.48 | 1208.35 | 1238.06 | 1255.6 | 1273.47 | 1291.18 | 1308.67 | 1316.72 | 1328.24
308.15 K | 1147.77 | 1170.98 | 1193.5 | 1222.71 | 1239.96 | 1257.52 | 1274.93 | 1292.14 | 1300.08 | 1311.45
318.15 K | 1133.54 | 1156.35 | 1178.49 | 1207.19 | 1224.13 | 1241.39 | 1258.49 | 1275.42 | 1283.24 | 1294.47

ClCCCCl [1,3-dichloropropane]
[2]
Conditions | mass density [kg/m3]
298.15 K | 1180.1
308.15 K | 1167.7
318.15 K | 1155.21

CCCCCl [1-chlorobutane] + C[N+](=O)[O-]
[1], x1 = 1
Conditions | mass density [kg/m3]
298.15 K | 881.17
308.15 K | 870
318.15 K | 858.67

CCCCCl [1-chlorobutane]
[2]
Conditions | mass density [kg/m3]
298.15 K | 881.17
308.15 K | 870
318.15 K | 858.67

ClCCCCl [1,3-dichloropropane] + C[N+](=O)[O-]
mass density [kg/m3], [1]
Conditions | x1 = 0.0878 | x1 = 0.1939 | x1 = 0.2938 | x1 = 0.3998 | x1 = 0.5028 | x1 = 0.6154 | x1 = 0.7207 | x1 = 0.8326 | x1 = 0.9404 | x1 = 1
298.15 K | 1135.58 | 1141.34 | 1146.79 | 1152.41 | 1157.65 | 1163.15 | 1168.07 | 1173.04 | 1177.55 | 1180.1
308.15 K | 1122.12 | 1128.05 | 1133.64 | 1139.39 | 1144.76 | 1150.38 | 1155.41 | 1160.49 | 1165.1 | 1167.7
318.15 K | 1108.53 | 1114.63 | 1120.37 | 1126.26 | 1131.76 | 1137.51 | 1142.65 | 1147.84 | 1152.56 | 1155.21

CC(Cl)(Cl)Cl [1,1,1-trichloroethane]
[2]
Conditions | mass density [kg/m3]
298.15 K | 1328.24
308.15 K | 1311.45
318.15 K | 1294.47

ClCCCl [1,2-dichloroethane]
[2]
Conditions | mass density [kg/m3]
298.15 K | 1245.59
308.15 K | 1230.96
318.15 K | 1216.16

ClC(Cl)Cl [trichloromethane]
[2]
Conditions | mass density [kg/m3]
298.15 K | 1473.42
308.15 K | 1454.33
318.15 K | 1434.98

C[N+](=O)[O-] [nitromethane] + ClCCCCCl
[1], x2 = 0
Conditions | mass density [kg/m3]
298.15 K | 1130.95
308.15 K | 1117.32
318.15 K | 1103.57
